What was measured:
Por. gingivalis 381 = experiment: Biofilm disruption assay on hydroxyapatite discs; assay type: cell-based, Porphyromonas gingivalis; conditions: Por. gingivalis 381 biofilm, DOSS 0.5% (w/v), CHX 0.2% (w/v)
Description: (§1) This assay was designed to determine quantitatively the relative potency of a test compound to disrupt (effectively kill) biofilms formed by a test organism on hydroxyapatite (HA) discs.
(§2) Biofilms were formed on sterile dense ceramic HA discs 7 mm diameter x 1.8 mm thick (Clarkson Chromatography) by placing the discs in the appropriate liquid media (as described above) inoculated with the test organism (0.5×10^8 cfu/ml). The HA discs were then incubated at 37° C. for ˜48 h in a 5% CO2 atmosphere (for Strep. mutans ATCC 25175) or ˜96 h under anaerobic conditions (for Por. gingivalis 381). Following the incubation period the supernatant was removed from the wells containing the HA discs and the discs were washed×3 with fresh media to ensure all planktonic cells were removed. The HA discs were then transferred to sterile bijoux bottles containing 1 ml of phosphate buffered saline (PBS) plus test compound(s) at the required concentration. After a set time period (usually 2 and/or 5 min), the HA disc was transferred to another sterile bijoux containing 1 ml of fresh growth media. Adherent cells were then harvested by vigorous vortexing for 2 minutes. A sample was then taken, serially diluted 10-fold in fresh growth media and inoculated onto agar plates in triplicate. Untreated HA discs, and HA discs added to PBS containing only the solvents used to dissolve the test compound(s), acted as controls.
(§3) The plates were then incubated as described above and subsequently examined visually for growth. Colonies were counted at an appropriate serial dilution (5-50 individual colonies visible) with the aid of a colony counter. These measurements were then converted to numbers of colony forming units (cfu), using the formula: cfu/ml=number of colonies×serial dilution factor×100 (as only a 10 μl sample was taken).
(§4) These cfu values were then converted into log10 values and plotted graphically against time of sample removal.
(§5) At each time point, samples were assessed in triplicate; the final cfu/ml value was an average (mean) of the three readings.
(§6) Biofilm disruption assays, as described above, were carried out using DOSS as the test compound and chlorhexidine (CHX) as a positive control. For these experiments, the DOSS was tested at 0.5% w/v against Por. gingivalis and 1% w/v against Strep. mutans. The ahlorhexidine was tested at a concentration of 0.2% w/v against both micro-organisms. The DOSS was dissolved in ethanol and the chlorhexidine in distilled water. All the experiments were conducted in triplicate.

Strep. mutans ATCC 25175 [1] = experiment: Biofilm disruption assay on hydroxyapatite discs; assay type: cell-based, Streptococcus mutans; conditions: Strep. mutans ATCC 25175 biofilm, DOSS 1.0% (w/v), CHX 0.2% (w/v)
Description: as §1, §2, §3, §4, §5, §6

P. acnes NCTC 737 [2] = experiment: Minimum inhibitory concentration (MIC) assay, liquid medium; assay type: cell-based, Propionibacterium acnes
Description: (§7) The propionibacteria were cultured and maintained on Wilkins-Chalgren Anaerobe Medium (agar and broth) at pH 6.0; all cultures were incubated anaerobically at 37° C. for 72 hours.
(§8) This is a standard international method for quantitatively assessing the antimicrobial activity of a compound in a liquid medium. The method used a sterile 96-well microtitre plate, capable of holding about 200 μl of liquid per well. The wells contained liquid culture medium and ranges of decreasing concentrations of the relevant test compound in doubling dilutions (eg, 1000, 500, 250, 125 . . . μg/ml, etc. down to 0.49 μg/ml). The culture media were as described above.
(§9) The wells were inoculated with a liquid suspension of freshly grown micro-organism and incubated under the conditions described above. After incubation, the microtitre plate was examined visually (with the aid of a light box) for cloudiness in each well, which would indicate microbial growth. The MIC value was recorded as the lowest concentration of test compound required to inhibit microbial growth, ie, the lowest concentration for which the liquid in the well remained clear.
(§10) The assays included both negative (culture medium with no micro-organisms) and positive (culture medium plus diluting solvent plus micro-organism) controls.

P. acnes NCTC 737 [3] = experiment: Minimum bactericidal concentration (MBC) assay; assay type: cell-based, Propionibacterium acnes
Description: (§11) The propionibacteria were cultured and maintained on Wilkins-Chalgren Anaerobe Medium (agar and broth) at pH 6.0; all cultures were incubated anaerobically at 37° C. for 72 hours. This assay, normally carried out after an MIC assay, determines the rnininiurn concentration of a compound that is lethal to the micro-organism being tested. […] These samples were then individually sub-cultured on antibiotic-free agar medium, under the incubation conditions described above. Following incubation they were examined visually for microbial growth.

P. acnes NCTC 737 [4] = experiment: Disc diffusion / synergy disc diffusion assay ((S)DDA); assay type: cell-based, Propionibacterium acnes; conditions: for SDDA area increase / SDDA increase: 200 μg DOS salt + 200 μg TCC; for SDDA with TCC: 200 μg DOS salt + 200 μg TCC on one disc; for SDDA increase: vs greater single-compound zone; for DDA + salt: sodium chloride 100 mM; for DDA + lipid: triolein 1% v/v
Description: as §7
(§12) A sterile paper disc was impregnated with a sample of the test compound in a suitable solvent and 30 minutes allowed for the solvents to evaporate (where possible). The disc was then placed on an agar plate onto which the test micro-organism had been inoculated. The plate was then incubated under the conditions described above, following which it was examined visually for signs of microbial growth. If the test compound had antimicrobial activity, a circular zone of no growth would be obtained around the disc. The diameter of this zone of “inhibition” was measured using a ProtoCOL™ automated zone sizer (Synbiosis, Cambridge, UK). In general, a greater diameter and/or area of the zone of inhibition indicates a greater antimicrobial activity in the relevant test compound, although other factors such as test compound mobility through the agar gel may also influence the result.
(§13) Two test a compounds A and B were placed on a single paper disc and the above described DDA procedure repeated. An increase in diameter of the zone of inhibition, compared to the greater of the zone diameters for the two compounds individually, was taken to indicate potential antimicrobial synergy. In practical terms, an increase of greater than 5 mm could be treated as significant.
Both the DDA and the SDDA test may be carried out using an agar gel supplemented with lipid and/or salt to simulate some of the major components present in human skin and to assess whether these substances might reduce the antimicrobial activity observed for the test compound. Performance under these conditions can provide a more reliable indication of activity on topical application. The supplements used in Examples 1, 11, 12 and 13 below were lipid (either Tween™ 80 at 1% v/v (Example 1) or triolein at 1% v/v (Examples 11, 12 and 13) and sodium chloride (100 mM).

[5] = test system: Por. gingivalis NCTC 11834; experiment: (S)DDA disc diffusion; assay type: cell-based, Porphyromonas gingivalis; conditions: for SDDA with TCC: 200 μg DOS salt + 200 μg TCC on one disc; for DDA: 200 μg per disc
Description: (§14) The P. gingivalis strains were cultured and maintained on Wilkins-Chalgren Anaerobe Medium (agar and broth) at pH 7.0; all cultures were incubated anaerobically at 37° C. for 5-7 days.
as §12, §13
(§15) For the (S)DDA experiments; 200 μg of the DOS salts and/or the TCC were loaded onto each disc for Por. gingivalis experiments. For the Strep. mutans experiments, 200 μg of the TCC and 50 μg of DOSS were used on each disc. All the experiments were conducted in triplicate.

Strep. mutans ATCC 25175 [6] = experiment: (S)DDA disc diffusion; assay type: cell-based, Streptococcus mutans; conditions: 200 μg per disc
Description: (§16) The S. mutans was cultured and maintained on Wilkins-Chalgren Anaerobe Medium (agar and broth) at pH 7.0 supplemented with 1 g/L glucose; all cultures were incubated at 37° C. for 48 h in an atmosphere containing 5% CO2.
as §12, §13, §15

[7] = test system: Por. gingivalis NCTC 11834; experiment: MIC assay, liquid medium; assay type: cell-based, Porphyromonas gingivalis
Description: as §14, §8, §9, §10

[8] = test system: Por. gingivalis NCTC 11834; experiment: MBC assay; assay type: cell-based, Porphyromonas gingivalis
Description: as §11, with “P. gingivalis strains” for “propionibacteria”, “7.0;” for “6.0;”, “5-7 days.” for “72 hours.”

Strep. mutans ATCC 25175 [9] = experiment: MIC assay, liquid medium; assay type: cell-based, Streptococcus mutans
Description: as §16, §8, §9, §10

Strep. mutans ATCC 25175 [10] = experiment: MBC assay; assay type: cell-based, Streptococcus mutans
Description: as §11, with “S. mutans was” for “propionibacteria were”, “7.0 supplemented with 1 g/L glucose;” for “6.0;”, “incubated” for “incubated anaerobically”, “48 h in an atmosphere containing 5% CO2.” for “72 hours.”

[11] = 200 μg of each test compound per disc (Example 2)
[12] = 200 μg per disc, pH 6.0, single replicates

Row | SMILES | MIC (P. acnes NCTC 737 [2]) | MBC (P. acnes NCTC 737 [3]) | MIC/MBC ratio (P. acnes NCTC 737 [3]) | SDDA area increase (P. acnes NCTC 737 [4]) | SDDA with TCC (P. acnes NCTC 737 [4]) | SDDA increase (P. acnes NCTC 737 [4]) | DDA (P. acnes NCTC 737 [4]; [11]) | DDA (P. acnes NCTC 737 [4]; [12]) | DDA + salt (P. acnes NCTC 737 [4]; 200 μg per disc, pH 6.0) | DDA + lipid (P. acnes NCTC 737 [4]; 200 μg per disc, pH 6.0) | SDDA area increase [5] | SDDA increase [5] | SDDA with TCC [5] | DDA [5] | DDA (Strep. mutans ATCC 25175 [6]) | MIC [7] | MBC [8] | MIC/MBC ratio [8] | MIC (Strep. mutans ATCC 25175 [9]) | MBC (Strep. mutans ATCC 25175 [10]) | further results
1 | [H]/N=C(\N/C(=N/[H])NCCCCCCNC(=N)NC(=N)Nc1ccc(Cl)cc1)Nc1ccc(Cl)cc1 [CHX, chlorhexidine] |  |  |  |  |  |  |  |  |  |  |  |  |  |  |  |  |  |  |  |  | Viable cell counts (Por. gingivalis 381; 0 min): 7.53 log10 cfu/ml; Viable cell counts (Por. gingivalis 381; 2 min): 6.50 log10 cfu/ml; Viable cell counts (Por. gingivalis 381; 5 min): 6.76 log10 cfu/ml; Viable cell counts (Strep. mutans ATCC 25175 [1]; 0 min): 6.56 log10 cfu/ml; Viable cell counts (Strep. mutans ATCC 25175 [1]; 2 min): 6.12 log10 cfu/ml; Viable cell counts (Strep. mutans ATCC 25175 [1]; 5 min): 5.99 log10 cfu/ml
2 | CCCCC(CC)COC(=O)CC(C(=O)OCC(CC)CCCC)S(=O)(=O)[O-].CCCCC(CC)COC(=O)CC(C(=O)OCC(CC)CCCC)S(=O)(=O)[O-].[Ca+2] (stereo not drawn) [DOS calcium salt] | 15.6 µg/mL | >31.25 µg/mL | <0.5 | 128.93% | 36.16 mm | 12.26 mm | 23.9 mm | 44.71 mm | 43.16 mm | 49.36 mm | 38.64% | 9.24 mm | 61.31 mm | 52.07 mm | 32.13 mm | 3.9 µg/mL | 7.8 µg/mL | 0.5 | 15.6 µg/mL | 31.25 µg/mL | MIC/MBC ratio (Strep. mutans ATCC 25175 [10]): 0.5
3 | CCCCC(CC)COC(=O)CC(C(=O)OCC(CC)CCCC)S(=O)(=O)[O-].[K+] (stereo not drawn) [DOS potassium salt] | 7.8 µg/mL | 62.5 µg/mL | 0.125 | 99.37% | 36.68 mm | 10.7 mm | 25.91 mm | 46.57 mm | 46.26 mm | 48.12 mm | 43.78% | 10.18 mm | 61.31 mm | 51.13 mm | 35.28 mm | 3.9 µg/mL | 7.8 µg/mL | 0.5 | 15.6 µg/mL | 31.25 µg/mL | MIC/MBC ratio (Strep. mutans ATCC 25175 [10]): 0.5

Reference: patent publication US20100273876A1, “ANTIBACTERIAL FORMULATION COMPRISING A DIALKYL SULPHOSUCCINATE AND A CARBANILIDE ANTIBACTERIAL AGENT” (priority 2007, published 2010)
